# Positions of bridges follow the written chain, without caps; N, C: chain ends. Non-standard residues stand in square brackets, D forms with d. Residues, ends and D or L forms follow the SMILES beside them. Trp(1-CH2COOH) = N[C@@H](Cc1cn(CC(=O)O)c2ccccc12)C(=O)O; Phe(4-F) = N[C@@H](Cc1ccc(F)cc1)C(=O)O; Phe(4-Me) = Cc1ccc(C[C@H](N)C(=O)O)cc1; Hyp = O=C(O)[C@@H]1C[C@@H](O)CN1; Aad = N[C@@H](CCCC(=O)O)C(=O)O; NMeNle = CCCC[C@H](NC)C(=O)O; dOrn = NCCC[C@@H](N)C(=O)O; Pip = O=C(O)[C@@H]1CCCCN1; NMeA = CN[C@@H](C)C(=O)O; Orn = NCCC[C@H](N)C(=O)O; Dab = NCC[C@H](N)C(=O)O; Dap = NC[C@H](N)C(=O)O; Ava = NCCCCC(=O)O
# Molecular target: T1, PD-1-Ig binding to PD-L1-TVMV-His (PD-L1-His) (Homo sapiens, UniProt Q9NZQ7)
# T1 construct: hPDL1(19-239)-TVMV-His; made in house; host or cells: HEK293T cells
# Experiment: PD-1/PD-L1 Homogenous Time-Resolved Fluorescence (HTRF) binding assay
# Settings: PD-1-Ig (20 nM) / PD-L1-His (10 nM); numeric values
# In short: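 In dPBS with 0.1% BSA and 0.05% Tween-20, inhibitors were preincubated 15 min with 10 nM PD-L1-His before 20 nM PD-1-Ig was added for another 15 min. Binding read by time-resolved FRET between Eu-cryptate anti-Ig (1 nM) and APC anti-His (20 nM).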
# T1 sequence (Q9NZQ7 with tags, fused parts or gaps): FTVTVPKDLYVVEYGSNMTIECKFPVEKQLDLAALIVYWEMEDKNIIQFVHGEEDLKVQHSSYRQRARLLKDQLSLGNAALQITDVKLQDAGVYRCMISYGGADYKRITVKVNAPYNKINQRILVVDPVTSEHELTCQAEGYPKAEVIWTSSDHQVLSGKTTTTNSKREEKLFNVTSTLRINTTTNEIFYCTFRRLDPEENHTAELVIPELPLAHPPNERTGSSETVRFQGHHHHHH
row,IC50 [nM],Structure (SMILES)
1,5,CCCC[C@H]1C(=O)N(C)[C@@H](CCCC)C(=O)N[C@@H](CC(C)C)C(=O)N[C@H](C(=O)NCC(N)=O)CNCC(=O)N[C@@H](Cc2ccc(O)cc2)C(=O)N(C)[C@@H](C)C(=O)N[C@@H](CC(N)=O)C(=O)N2CCC[C@H]2C(=O)N[C@@H](CCC(N)=O)C(=O)N[C@@H](CCC(=O)O)C(=O)N2C[C@H](O)C[C@H]2C(=O)N[C@@H](Cc2c[nH]c3ccccc23)C(=O)N[C@@H](CC(N)=O)C(=O)N[C@@H](Cc2cn(CC(=O)O)c3ccccc23)C(=O)N1C [Example 9007]

# Same assay, conditions: PD-1-Ig (20 nM) / PD-L1-His (10 nM); range classes
row,Structure (SMILES),IC50 [nM]
1,CCCC[C@H]1C(=O)N(C)[C@@H](CCCC)C(=O)N[C@@H](CC(C)C)C(=O)NCCC[C@@H](N)C(=O)N[C@@H](Cc2ccc(O)cc2)C(=O)N2CCCC[C@H]2C(=O)N[C@@H](CC(N)=O)C(=O)N2CCC[C@H]2C(=O)N[C@@H](CN)C(=O)N[C@@H](CC(C)C)C(=O)N2C[C@H](O)C[C@H]2C(=O)N[C@@H](Cc2c[nH]c3ccccc23)C(=O)N[C@@H](CCN)C(=O)N[C@@H](Cc2cn(CC(=O)O)c3ccccc23)C(=O)N1C [Example 10558] (H-[dOrn]Y[Pip]NP[Dap]L[Hyp]W[Dab][Trp(1-CH2COOH)][NMeNle][NMeNle]L; lactam 1-C),10 to 99
2,CCCC[C@H]1C(=O)N(C)[C@@H](CCCC)C(=O)N[C@@H](CC(C)C)C(=O)N[C@H](C(=O)NCC(N)=O)CCCNCC(=O)N[C@@H](Cc2ccccc2)C(=O)N(C)[C@@H](C)C(=O)N[C@@H](CC(C)C)C(=O)N2CCC[C@H]2C(=O)N[C@@H](CC(C)C)C(=O)N[C@@H](CC(C)C)C(=O)N2CCC[C@H]2C(=O)N[C@@H](Cc2c[nH]c3ccccc23)C(=O)N[C@@H](CC(C)C)C(=O)N[C@@H](Cc2c[nH]c3ccccc23)C(=O)N1C [Example 10010],100 to 10000
3,CCCC[C@H]1C(=O)N(C)[C@@H](CCCC)C(=O)N[C@@H](CC(C)C)C(=O)NCCC[C@H](N)C(=O)N[C@@H](Cc2ccc(C)cc2)C(=O)N2CCCC[C@H]2C(=O)N[C@@H](CC(N)=O)C(=O)N2CCC[C@H]2C(=O)N[C@@H](CN)C(=O)N[C@@H](CCC(=O)O)C(=O)N2C[C@H](O)C[C@H]2C(=O)N[C@@H](Cc2c[nH]c3ccccc23)C(=O)N[C@@H](CCN)C(=O)N[C@@H](Cc2cn(CC(=O)O)c3ccccc23)C(=O)N1C [Example 10547] (H-[Orn][Phe(4-Me)][Pip]NP[Dap]E[Hyp]W[Dab][Trp(1-CH2COOH)][NMeNle][NMeNle]L; lactam 1-C),10 to 99
4,CCCC[C@H]1C(=O)N(C)[C@@H](CCCC)C(=O)NC(CC(C)C)C(=O)N[C@H](C(=O)NCC(N)=O)CNCC(=O)N[C@@H](Cc2ccc(O)cc2)C(=O)N(C)[C@@H](C)C(=O)N[C@@H](CC(N)=O)C(=O)N2CCC[C@H]2C(=O)N[C@@H](CN)C(=O)N[C@@H](CC(C)C)C(=O)N2C[C@H](O)C[C@H]2C(=O)N[C@@H](Cc2c[nH]c3ccccc23)C(=O)N[C@@H](CCCCN)C(=O)N[C@@H](Cc2cn(CC(=O)O)c3ccccc23)C(=O)N1C (some centres unmarked) [Example 1032],1 to 9.9
5,CCCC[C@H]1C(=O)N(C)[C@@H](CCCC)C(=O)N[C@@H](CC(C)C)C(=O)N[C@H](C(N)=O)CNCC(=O)N[C@@H](Cc2ccc(O)cc2)C(=O)N2CCCC[C@H]2C(=O)N[C@@H](CC(=O)O)C(=O)N2CCC[C@H]2C(=O)N[C@@H](CCC(N)=O)C(=O)N[C@@H](CCC(N)=O)C(=O)N2C[C@H](O)C[C@H]2C(=O)N[C@@H](Cc2c[nH]c3ccccc23)C(=O)N[C@@H](CC(N)=O)C(=O)N[C@@H](Cc2cn(CC(=O)O)c3ccccc23)C(=O)N1C [Example 9037],1 to 9.9
6,CCCC[C@H]1C(=O)N(C)[C@@H](CCCC)C(=O)N[C@@H](CC(C)C)C(=O)N[C@H](C(=O)NCC(N)=O)CNCC(=O)N[C@@H](Cc2ccc(O)cc2)C(=O)N(C)[C@@H](C)C(=O)N[C@@H](CC(=O)O)C(=O)N2CCC[C@H]2C(=O)N[C@@H](CCC(N)=O)C(=O)N[C@@H](CC(=O)O)C(=O)N2C[C@H](O)C[C@H]2C(=O)N[C@@H](Cc2c[nH]c3ccccc23)C(=O)N[C@@H](CC(N)=O)C(=O)N[C@@H](Cc2cn(CC(=O)O)c3ccccc23)C(=O)N1C [Example 9013],10 to 99
7,CCCC[C@H]1C(=O)N(C)[C@@H](CCCC)C(=O)N[C@@H](CCC(=O)O)C(=O)N[C@H](C(=O)NCC(N)=O)CNCC(=O)N[C@@H](Cc2ccc(O)cc2)C(=O)N(C)[C@@H](C)C(=O)N[C@@H](CC(N)=O)C(=O)N2CCC[C@H]2C(=O)N[C@@H](CCC(N)=O)C(=O)N[C@@H](CCC(=O)O)C(=O)N2C[C@H](O)C[C@H]2C(=O)N[C@@H](Cc2c[nH]c3ccccc23)C(=O)N[C@@H](CC(N)=O)C(=O)N[C@@H](Cc2cn(CC(=O)O)c3ccccc23)C(=O)N1C [Example 9020],10 to 99
8,CCCC[C@H]1C(=O)N(C)[C@@H](CCCC)C(=O)N[C@@H](CC(C)C)C(=O)N[C@H](C(N)=O)CNCC(=O)N[C@@H](Cc2ccc(F)cc2)C(=O)N2CCCC[C@H]2C(=O)N[C@@H](CC(=O)O)C(=O)N2CCC[C@H]2C(=O)N[C@@H](CCC(N)=O)C(=O)N[C@@H](CC(=O)O)C(=O)N2C[C@H](O)C[C@H]2C(=O)N[C@@H](Cc2c[nH]c3ccccc23)C(=O)N[C@@H](CC(N)=O)C(=O)N[C@@H](Cc2cn(CC(=O)O)c3ccccc23)C(=O)N1C [Example 9039],1 to 9.9

# Other lines, results leading:
row,IC50 [nM],Structure (SMILES)
1,1 to 9.9,CCCC[C@H]1C(=O)N(C)[C@@H](CCCC)C(=O)N[C@@H](CCC(=O)O)C(=O)N[C@H](C(N)=O)CNCC(=O)N[C@@H](Cc2ccc(F)cc2)C(=O)N2CCCC[C@H]2C(=O)N[C@@H](CC(N)=O)C(=O)N2CCC[C@H]2C(=O)N[C@@H](Cc2c[nH]cn2)C(=O)N[C@@H](CCC(=O)O)C(=O)N2C[C@H](O)C[C@H]2C(=O)N[C@@H](Cc2c[nH]c3ccccc23)C(=O)N[C@@H](C)C(=O)N[C@@H](Cc2cn(CC(=O)O)c3ccccc23)C(=O)N1C [Example 9058]
2,10 to 99,CCCC[C@H]1C(=O)N(C)[C@@H](CCCC)C(=O)NC(CC(C)C)C(=O)N[C@H](C(=O)NCC(N)=O)CNCC(=O)N[C@@H](Cc2ccc(O)cc2)C(=O)N(C)[C@@H](C)C(=O)N[C@@H](CC(N)=O)C(=O)N2CCC[C@H]2C(=O)N[C@@H](CC(N)=O)C(=O)N[C@@H](CC(C)C)C(=O)N2CCC[C@H]2C(=O)N[C@@H](Cc2c[nH]c3ccccc23)C(=O)N[C@@H](CC(N)=O)C(=O)N[C@@H](Cc2c[nH]c3ccccc23)C(=O)N1C (some centres unmarked) [Example 10002]
3,1 to 9.9,CCCC[C@H]1C(=O)N(C)[C@@H](CCCC)C(=O)N[C@@H](CC(C)C)C(=O)N[C@H](C(N)=O)CNCC(=O)N[C@@H](Cc2ccc(O)cc2)C(=O)N2CCCC[C@H]2C(=O)N[C@@H](CC(N)=O)C(=O)N2CCC[C@H]2C(=O)N[C@@H](Cc2c[nH]cn2)C(=O)N[C@@H](CCC(N)=O)C(=O)N2C[C@H](O)C[C@H]2C(=O)N[C@@H](Cc2c[nH]c3ccccc23)C(=O)N[C@@H](C)C(=O)N[C@@H](Cc2cn(CC(=O)O)c3ccccc23)C(=O)N1C [Example 9051]
4,1 to 9.9,CCCC[C@H]1C(=O)N(C)[C@@H](CCCC)C(=O)N[C@@H](CC(C)C)C(=O)N[C@H](C(N)=O)CNCC(=O)N[C@@H](Cc2ccc(O)cc2)C(=O)N2CCCC[C@H]2C(=O)N[C@@H](CC(N)=O)C(=O)N2CCC[C@H]2C(=O)N[C@@H](CCC(N)=O)C(=O)N[C@@H](CC(C)C)C(=O)N2C[C@H](O)C[C@H]2C(=O)N[C@@H](Cc2c[nH]c3ccccc23)C(=O)N[C@@H](CC(N)=O)C(=O)N[C@@H](Cc2cn(CC(=O)O)c3ccccc23)C(=O)N1C [Example 9026]
5,1 to 9.9,CCCC[C@H]1C(=O)N(C)[C@@H](CCCC)C(=O)N[C@@H](CC(C)C)C(=O)NCCCCC(=O)N[C@@H](Cc2ccc(O)cc2)C(=O)N(C)[C@@H](C)C(=O)N[C@@H](CC(N)=O)C(=O)N2CCC[C@H]2C(=O)N[C@@H](CN)C(=O)N[C@@H](CC(C)C)C(=O)N2C[C@H](O)C[C@H]2C(=O)N[C@@H](Cc2c[nH]c3ccccc23)C(=O)N[C@@H](CCN)C(=O)N[C@@H](Cc2c[nH]c3ccccc23)C(=O)N1C [Example 10505] (cyclo([Ava]Y[NMeA]NP[Dap]L[Hyp]W[Dab]W[NMeNle][NMeNle]L))
6,1 to 9.9,CCCC[C@H]1C(=O)N(C)[C@@H](CCCC)C(=O)N[C@@H](CC(C)C)C(=O)N[C@H](C(N)=O)CCCC(=O)N[C@@H](Cc2ccc(OC)cc2)C(=O)N2CCCC[C@H]2C(=O)N[C@@H](CC(=O)O)C(=O)N2CCC[C@H]2C(=O)N[C@@H](CN)C(=O)N[C@@H](CC(C)C)C(=O)N2C[C@H](O)C[C@H]2C(=O)N[C@@H](Cc2c[nH]c3ccccc23)C(=O)N[C@@H](CCN)C(=O)N[C@@H](Cc2cn(CC(=O)O)c3ccccc23)C(=O)N1C [Example 10554] (Y(Me)[Pip]DP[Dap]L[Hyp]W[Dab][Trp(1-CH2COOH)][NMeNle][NMeNle]L[Aad]-NH2; lactam N-14)
7,10 to 99,CCCC[C@H]1C(=O)N(C)[C@@H](CCCC)C(=O)N[C@@H](CC(C)C)C(=O)N[C@H](C(=O)NCC(N)=O)CNCC(=O)N[C@@H](Cc2ccc(F)cc2)C(=O)N(C)[C@@H](C)C(=O)N[C@@H](CC(N)=O)C(=O)N2CCC[C@H]2C(=O)N[C@@H](CCC(N)=O)C(=O)N[C@@H](CC(=O)O)C(=O)N2C[C@H](O)C[C@H]2C(=O)N[C@@H](Cc2c[nH]c3ccccc23)C(=O)N[C@@H](CC(N)=O)C(=O)N[C@@H](Cc2cn(CC(=O)O)c3ccccc23)C(=O)N1C [Example 9010]
8,10 to 99,CCCC[C@H]1C(=O)N(C)[C@@H](CCCC)C(=O)N[C@@H](CC(C)C)C(=O)N[C@H](C(N)=O)CCCC(=O)N[C@@H](Cc2ccc(F)cc2)C(=O)N2CCCC[C@H]2C(=O)N[C@@H](CC(N)=O)C(=O)N2CCC[C@H]2C(=O)N[C@@H](CN)C(=O)N[C@@H](CC(C)C)C(=O)N2C[C@H](O)C[C@H]2C(=O)N[C@@H](Cc2c[nH]c3ccccc23)C(=O)N[C@@H](CCN)C(=O)N[C@@H](Cc2cn(CC(=O)O)c3ccccc23)C(=O)N1C [Example 10526] ([Phe(4-F)][Pip]NP[Dap]L[Hyp]W[Dab][Trp(1-CH2COOH)][NMeNle][NMeNle]L[Aad]-NH2; lactam N-14)

# Reference: patent US9732119B2, “Immunomodulators” (BRISTOL-MYERS SQUIBB COMPANY, priority 2014, dated 2017)
